Measurements as given in patent US6262023A, “WD-40 derived peptides and uses thereof” (The Board of Trustees of the Leland Stanford Junior …, priority 1995, dated 2001).

What was measured:
βPKC = βPKC (Rattus norvegicus, UniProt P68403); assay: Sensitivity of βPKC to Arg-C endopeptidase (nicking); format: biochemical; design: All the solutions contained 5 nM rat brain PKC in peptide overlay buffer; from tissue; host or cells: rat brain; conditions: 2.5 μg/ml PS and 50 μM CaCl2; peptide 10 μM; Arg-C 5 units/ml
βPKC, sequence (P68403 whole entry, the tested form may be a part): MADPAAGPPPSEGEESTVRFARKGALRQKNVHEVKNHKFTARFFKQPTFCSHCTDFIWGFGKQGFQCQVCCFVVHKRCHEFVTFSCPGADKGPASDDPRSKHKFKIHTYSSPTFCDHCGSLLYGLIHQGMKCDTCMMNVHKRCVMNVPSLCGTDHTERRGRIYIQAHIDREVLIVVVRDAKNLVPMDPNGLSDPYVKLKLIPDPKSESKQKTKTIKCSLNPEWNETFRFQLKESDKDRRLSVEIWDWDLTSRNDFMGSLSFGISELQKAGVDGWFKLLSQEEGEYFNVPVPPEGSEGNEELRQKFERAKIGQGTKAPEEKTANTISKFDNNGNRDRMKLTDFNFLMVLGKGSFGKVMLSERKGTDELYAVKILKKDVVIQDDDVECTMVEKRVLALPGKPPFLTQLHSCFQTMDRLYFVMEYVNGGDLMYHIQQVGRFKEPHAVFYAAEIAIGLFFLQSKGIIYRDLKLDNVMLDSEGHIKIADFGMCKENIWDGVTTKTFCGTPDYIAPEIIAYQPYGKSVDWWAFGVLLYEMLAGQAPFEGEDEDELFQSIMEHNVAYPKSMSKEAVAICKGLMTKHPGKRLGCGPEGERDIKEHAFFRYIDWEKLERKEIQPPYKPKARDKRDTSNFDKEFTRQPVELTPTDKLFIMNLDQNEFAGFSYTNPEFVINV
Excerpt: Upon activation of PKC, a pseudosubstrate autoinhibitory sequence at the N-terminus of the molecule dissociates from the catalytic site and becomes sensitive to endopeptidase Arg-C (Orr, et al.). In the absence of PKC activators, exposure of the 80 kDa βPKC to endopeptidase Arg-C has no effect on the enzyme (see FIG. 7, lane 1). In the presence of the PKC activators PS, DG and calcium, however, exposure of βPKC to Arg-C results in a "nicking" of the PKC (i.e. limited proteolysis generating a 78 kDa fragment and several small fragments (see FIG. 7, lane 2)). Continued exposure to Arg-C results in the disappearance of βPKC (Orr, et al.). The present experiment tests whether peptides derived from the WD-40 region of RACK1 alter the sensitivity of βPKC to endopeptidase Arg-C.
The methods used to assay Arg-C sensitivity are a modification of methods described by Orr, et al. Rat brain PKC (~5 nM) was incubated at room temperature in 500 μl of 20 mM Tris-HCl buffer (pH 7.5) alone or with Arg-C (5 units/ml) in the presence or absence of the indicated peptides (final concentration 10 μM or as indicated), PS, DG, and calcium (as indicated). 50 μl aliquots were removed into 20 μl of sample buffer during the reaction as indicated (samples in all the lanes were incubated for 30 minutes, except lanes 5, and 6, which were incubated for 5 and 15 minutes, respectively). The samples were boiled for 10 minutes at 80° C. and loaded onto 8% SDS-PAGE. βPKC was detected by Western blot analysis using anti-βPKC antibodies as described in Examples 6 and 8.
PKC was incubated for the indicated time alone (lane 1) or in the presence of Arg-C (lanes 2-9), with DG (0.8 μg/ml), PS (50 μg/ml) and CaCl2 (1 mM; lane 2), with PS (50 μg/ml) and CaCl2 (1 mM; lane 3), with PS (2.5 μg/ml) and CaCl2 (50 μM; lane 4); with PS (2.5 μg/ml), CaCl2 (50 μM) and with either peptide rVI (SEQ ID NO:7; 10 μM; lanes 5-7), control peptide (SEQ ID NO: 9; lane 8) or with peptide I (SEQ ID) NO:1; lane 9).

[1] = tested on: PKC-mediated germinal vesicle breakdown (GVBD) in Xenopus oocytes; assay: PKC-mediated Xenopus oocyte maturation (germinal vesicle breakdown, GVBD) after peptide microinjection; format: cell-based
Experimental: Exposure to insulin induces maturation in Xenopus oocytes via a PKC-dependent pathway (Smith, et al., 1992). The maturation response may be quantified by monitoring the appearance of a white spot in the animal hemisphere of the oocyte, indicating germinal vesicle breakdown (GVBD) and maturation. To assess the effects of RACK1 WD-40-derived peptides on insulin-induced PKC-mediated maturation, 50 nl of a 20 mM NaCl solution containing the indicated peptides [peptide I (SEQ ID NO:1; .circle-solid.), peptide rVI (SEQ ID NO:7; .box-solid.), or injection solution (.quadrature.)] […] One hour following the peptide injections, the oocytes were exposed to a solution containing insulin (8.25 μg/ml) for 2 minutes (t=0). 10-15 oocytes were used for each sample.
The data, representative of three independent experiments, are expressed as the percent of oocytes with GVBD following insulin exposure and are plotted as a function of time in FIG. 5.

δ and εPKC isozymes = assay: PKC isozyme translocation and degradation in cardiac myocytes; format: cell-based, rat; conditions: peptide introduced into cardiac myocytes
Excerpt: This peptide-induced translocation was followed by degradation of δ and εPKC isozymes.

PKC binding to RACK1 = assay: Overlay / overlay-extraction assay: inhibition of PKC binding to recombinant RACK1 by peptides; design: species or system rat; conditions: 10 μM peptide preincubated with PKC isozyme mixture; compared with binding in the absence of added peptide; n=3
Experimental: Purified recombinant RACK1 protein (100-250 μg per lane, produced as detailed in Example 2) was subjected to SDS/PAGE and blotted onto nitrocellulose membranes (Ausubel). The nitrocellulose membranes were cut into strips, which were incubated for 0.5 hr in overlay buffer (Example 1) in the presence or absence of a mixture of PKC isozymes (α, β, γ, ε and .zeta., ~10 nM each final concentration) and PKC activators (60 μg/ml phosphatidylserine (PS), 2 μg/ml diacylglycerol (DG), and 1 mM CaCl2). Unbound material was removed by five washes, 5-min each, in overlay wash buffer. Where indicated, PKC activators were present during the incubation of PKC with the nitrocellulose strips. The conditions for each sample and corresponding results are presented in part D below.
The variation in the overlay protocol consisted of incubating the putative binding peptides with a mixture of PKC isozymes for 15 minutes at room temperature before the mixture was used to contact the nitrocellulose strips containing immobilized RACK1.
Nitrocellulose strips containing immobilized RACK1, that had been contacted with a solution containing a mixture of PKC isozymes, were washed and the area corresponding to the 36 kDa (RACK1-containing) band was cut out. The pieces (containing PKC/RACK1 complexes) were incubated with sample buffer for 10 minutes at 80° C. The sample buffer and the nitrocellulose pieces were then placed in wells in the PAGE gel and subjected to SDS-PAGE to elute the bound proteins. The gel was blotted onto nitrocellulose and a Western blot analysis was carried out using the mixture of antibodies (specific for PKC α, β, γ, δ, ε and .zeta. isozymes) described in Example 1 part B. Bound antibodies were detected by ^125 I-protein A.
Peptides derived from or homologous to WD-40 repeats of RACK1 were tested for their ability to inhibit PKC binding to recombinant RACK1. Binding of PKC to RACK1 was carried out using a variation of the overlay procedure described in Example 3 part B. In the experimental samples, peptides were incubated with a solution containing a mixture of rat brain PKC isozymes (~10 nM each) for 15 minutes at room temperature.
Following completion of the modified overlay protocol, the samples were subjected to the overlay-extraction protocol detailed in part B, above.

peptide I: 15-residue peptide homologous to a sequence in the sixth WD-40 repeat of RACK1; PKC antagonist (KGDYEKILVALCGGN)
nicking of βPKC by Arg-C (78 kDa fragment) at low concentrations of activators (βPKC): nicking of βPKC did not occur
plateau of % GVBD following insulin exposure ([1]; 50 nl of 50 μM peptide microinjected, insulin 8.25 μg/ml): 45-50 % GVBD
dose dependence of effect on GVBD ([1]; between 5 μm-500 μM): dose-dependent
fraction of oocytes exposed to insulin that reach maturation ([1]; peptide microinjected, insulin): 45-50%
effect on NE-induced translocation of PKC isozymes (δ and εPKC isozymes; norepinephrine 2 μM): inhibited
degradation of δ and εPKC isozymes (δ and εPKC isozymes): nor does it induce PKC degradation
translocation / distribution of δ and εPKC isozymes in the absence of hormone stimulation (δ and εPKC isozymes): does not affect PKC distribution
inhibition of PKC binding to recombinant RACK1 (PKC binding to RACK1): 81±6%
